# A compilation of properties of binary mixtures (doi:10.1021/acs.jced.1c00387)
# Experiment: xn = mol fraction of the nth substance listed
# Details: 81.5 kPa
compound,measurement,setting,value
CC(C)(N)CO + CC(=O)[O-].CC[n+]1ccn(C)c1,viscosity,"293.15 K, x1 = 0.2",198 mPa·s
same,viscosity,"293.15 K, x1 = 0.4",136 mPa·s
same,viscosity,"293.15 K, x1 = 0.6",94.7 mPa·s
same,viscosity,"303.15 K, x1 = 0.2",104 mPa·s
same,viscosity,"303.15 K, x1 = 0.4",74.9 mPa·s
same,viscosity,"313.15 K, x1 = 0.2",60.3 mPa·s
same,viscosity,"313.15 K, x1 = 0.4",45.5 mPa·s
same,viscosity,"313.15 K, x1 = 0.6",33.2 mPa·s
same,viscosity,"313.15 K, x1 = 0.8",29.3 mPa·s
same,viscosity,"313.15 K, x1 = 1",54.4 mPa·s
same,viscosity,"323.15 K, x1 = 0.2",38.3 mPa·s
same,viscosity,"323.15 K, x1 = 0.4",29.9 mPa·s
same,viscosity,"323.15 K, x1 = 0.8",18.6 mPa·s
same,viscosity,"323.15 K, x1 = 1",25.5 mPa·s
same,viscosity,"333.15 K, x1 = 0.2",26 mPa·s
same,viscosity,"333.15 K, x1 = 0.4",20.9 mPa·s
same,viscosity,"333.15 K, x1 = 0.6",15.7 mPa·s
same,viscosity,"333.15 K, x1 = 1",14.6 mPa·s
same,viscosity,"343.15 K, x1 = 0.2",18.6 mPa·s
same,viscosity,"343.15 K, x1 = 1",9.2 mPa·s
same,viscosity,"353.15 K, x1 = 0.2",13.5 mPa·s
same,viscosity,"353.15 K, x1 = 0.4",11.7 mPa·s
same,viscosity,"353.15 K, x1 = 0.6",8.8 mPa·s
same,viscosity,"353.15 K, x1 = 0.8",6.8 mPa·s
same,viscosity,"353.15 K, x1 = 1",5.9 mPa·s
CN(CCO)CCO + CC(=O)[O-].CC[n+]1ccn(C)c1,viscosity,"303.15 K, x1 = 1",58 mPa·s
same,viscosity,"323.15 K, x1 = 1",22.1 mPa·s
same,viscosity,"333.15 K, x1 = 1",14.9 mPa·s
same,viscosity,"343.15 K, x1 = 1",10.4 mPa·s
same,viscosity,"353.15 K, x1 = 1",7.4 mPa·s
OCCNCCO + CC(=O)[O-].CC[n+]1ccn(C)c1,viscosity,"293.15 K, x1 = 0.2",202 mPa·s
same,viscosity,"293.15 K, x1 = 0.4",197 mPa·s
same,viscosity,"293.15 K, x1 = 0.6",214 mPa·s
same,viscosity,"303.15 K, x1 = 0.4",108 mPa·s
same,viscosity,"303.15 K, x1 = 0.8",175 mPa·s
same,viscosity,"313.15 K, x1 = 0.4",65.2 mPa·s
same,viscosity,"313.15 K, x1 = 0.6",68.6 mPa·s
same,viscosity,"313.15 K, x1 = 0.8",95.6 mPa·s
same,viscosity,"313.15 K, x1 = 1",191 mPa·s
same,viscosity,"323.15 K, x1 = 0.2",41.2 mPa·s
same,viscosity,"323.15 K, x1 = 0.4",42.4 mPa·s
same,viscosity,"323.15 K, x1 = 0.6",43.9 mPa·s
same,viscosity,"323.15 K, x1 = 0.8",56.8 mPa·s
same,viscosity,"323.15 K, x1 = 1",102 mPa·s
same,viscosity,"333.15 K, x1 = 0.2",28.3 mPa·s
same,viscosity,"333.15 K, x1 = 0.6",29.8 mPa·s
same,viscosity,"333.15 K, x1 = 0.8",36.1 mPa·s
same,viscosity,"333.15 K, x1 = 1",58.2 mPa·s
same,viscosity,"343.15 K, x1 = 0.2",20.4 mPa·s
same,viscosity,"343.15 K, x1 = 0.4",21.2 mPa·s
same,viscosity,"343.15 K, x1 = 0.6",21.3 mPa·s
same,viscosity,"343.15 K, x1 = 0.8",24.4 mPa·s
same,viscosity,"343.15 K, x1 = 1",35.5 mPa·s
same,viscosity,"353.15 K, x1 = 0.2",15.3 mPa·s
same,viscosity,"353.15 K, x1 = 0.4",15.9 mPa·s
same,viscosity,"353.15 K, x1 = 1",23 mPa·s
CC(=O)[O-].CC[n+]1ccn(C)c1 + CC(C)(N)CO,viscosity,"293.15 K, x2 = 0",204 mPa·s
same,viscosity,"303.15 K, x2 = 0",106 mPa·s
same,viscosity,"313.15 K, x2 = 0",61.6 mPa·s
same,viscosity,"323.15 K, x2 = 0",39.4 mPa·s
same,viscosity,"333.15 K, x2 = 0",26.8 mPa·s
same,viscosity,"343.15 K, x2 = 0",19.3 mPa·s
same,viscosity,"353.15 K, x2 = 0",14.6 mPa·s
CC(=O)[O-].CC[n+]1ccn(C)c1 + CN(CCO)CCO,viscosity,"293.15 K, x2 = 0",204 mPa·s
same,viscosity,"293.15 K, x2 = 0.2",193 mPa·s
same,viscosity,"293.15 K, x2 = 0.6",128 mPa·s
same,viscosity,"293.15 K, x2 = 0.8",109 mPa·s
same,viscosity,"303.15 K, x2 = 0",106 mPa·s
same,viscosity,"303.15 K, x2 = 0.2",105 mPa·s
same,viscosity,"303.15 K, x2 = 0.4",96 mPa·s
same,viscosity,"303.15 K, x2 = 0.6",76.2 mPa·s
same,viscosity,"303.15 K, x2 = 0.8",61.5 mPa·s
same,viscosity,"313.15 K, x2 = 0",61.6 mPa·s
same,viscosity,"313.15 K, x2 = 0.2",63.5 mPa·s
same,viscosity,"313.15 K, x2 = 0.4",59.8 mPa·s
same,viscosity,"313.15 K, x2 = 0.6",48.8 mPa·s
same,viscosity,"313.15 K, x2 = 0.8",39.1 mPa·s
same,viscosity,"323.15 K, x2 = 0",39.4 mPa·s
same,viscosity,"323.15 K, x2 = 0.2",41.3 mPa·s
same,viscosity,"323.15 K, x2 = 0.6",33.2 mPa·s
same,viscosity,"323.15 K, x2 = 0.8",26.4 mPa·s
same,viscosity,"333.15 K, x2 = 0.2",28.6 mPa·s
same,viscosity,"333.15 K, x2 = 0.4",28.1 mPa·s
same,viscosity,"333.15 K, x2 = 0.6",23.6 mPa·s
same,viscosity,"333.15 K, x2 = 0.8",18.7 mPa·s
same,viscosity,"343.15 K, x2 = 0",19.3 mPa·s
same,viscosity,"343.15 K, x2 = 0.2",20.7 mPa·s
same,viscosity,"343.15 K, x2 = 0.4",20.6 mPa·s
same,viscosity,"343.15 K, x2 = 0.6",17.5 mPa·s
same,viscosity,"343.15 K, x2 = 0.8",13.7 mPa·s
same,viscosity,"353.15 K, x2 = 0.2",15.7 mPa·s
same,viscosity,"353.15 K, x2 = 0.4",15.6 mPa·s
same,viscosity,"353.15 K, x2 = 0.6",13.4 mPa·s
CC(=O)[O-].CC[n+]1ccn(C)c1 + OCCNCCO,viscosity,"323.15 K, x2 = 0",39.4 mPa·s
same,viscosity,"343.15 K, x2 = 0",19.3 mPa·s
same,viscosity,"353.15 K, x2 = 0",14.6 mPa·s
